“Also recorded” adds a separate entry of the source. Read-outs that look alike come from different tables or passages of the source.
What was measured:
U118MG cells [1] = assay: Protection against cell death induced by glutamate in U118MG cell culture; type: cell-based, human; conditions: for protection against cell death induced by glutamate: U118MG cells, 35 mM glutamate, compound 1-100 μM; for Protection against glutamate-induced cell death: cell culture, grade in words; for lethal effects of compound at high concentration: 100 μM compound alone; for lethal effects of compound at high concentration / cell death effect of glutamate at high compound concentration: halogenated vs unhalogenated analog
Description: Cell cultures of various human glial type cell lines (T98G, U87MG, A172, U118MG), as well as human neuronal type cell lines SH-SY 5Y and Be(2)-C were used to test the new compounds. In addition, the rat glioma cell line C6 was used. PC12 cells originating from rats were used as another cell line displaying neuronal characteristics. The applicants also have produced, by genetic manipulation, a modified rat C6 glial cell strain and a modified human U118MG glial type cell strain, both under-expressing the TSPO, which allows to study TSPO specific effects, including of the compounds of the invention, which can be done according to methods described previously (Weisinger et al. Biochemistry. 2004; 43:12315-21; Levin et al. 2005; Zeno et al., 2009).
The protective capabilities of the compounds of the invention and involvement of the TSPO were tested in cell culture, using cell lines of glial and neuronal type, cultured and testing according to standard methods (Kugler et al. 2008; Zeno et al. 2009; Dadon-Nachum et al. Stem Cell Rev. 2011; 7:664-71). Furthermore, primary cell cultures are also used (Banker, G. et al. Culturing Nerve Cells, 2nd Edition, The MIT Press (1998). Treatments included: (1) exposure to glutamate (35 mM), Abeta(1-42), NH4Cl, CoCl2, and nitric oxide (NO) donors, in order to mimic particular aspects of neurodegeneration; (2) treatment with the novel compounds and with traditional TSPO ligands as comparative treatment; and (3) TSPO knockdown by genetic manipulation.
(§1) Techniques and parameters assayed are summarized here: Total protein levels (Bradford. Anal Biochem. 1976; 72:248-54); TSPO ligand binding assays (Kugler et al. 2008; Levin et al. 2005; Danovich et al. Eur Neuropsychopharmacol. 2008; 18:24-33) cell death, including apoptosis and necrosis and related molecular biological processes (Soustiel et al. Neuropathol Appl Neurobiol. 2008; 34:412-23; Soustiel et al. Exp Neurol. 2008; 214:201-8; Zeno et al. 2009); mitochondrial transmembrane potential collapse (Chelli et al. Biochem Pharmacol. 2004; 68:125-34; Kugler et al. 2008; Zeno et al., 2009; Shargorodsky et al. Apoptosis. 2012; 17:647-65), reactive oxygen species (ROS) generation as a measure of oxidative stress (Veenman et al. 2008; Zeno et al. 2009); TSPO knockdown (Levin et al. 2005; Zeno et al. 2009); expression levels of mitochondrial TSPO and associated proteins (Veenman et al. 2002; Levin et al. 2005; Veenman et al. 2008); gene expression with RT-PCR and microarray analysis (Bode et al. 2012; Veenman et al. 2012). Parameters of inflammation, immune response, migration, and the cell cycle are also tested. All these approaches can also be applied for quality control of the compounds.
The compounds of the invention protect against cell death induced by glutamate in cell culture of U118MG cells of astrocytic origin (FIGS. 1, 2, 3 and 8) or SH SY 6Y cells of neuronal origin (FIG. 4). […] In the control group, 35 mM of glutamate killed ˜60% of the cells.
The experimental setup is explained using FIG. 8B as an example: • 1. Control: Cell death levels are taken as 0% • 2. Glu: Cell death levels induced by glutamate are over 50% • 3. […] Glu+Cpd 5: When Cpd 5 is given as a treatment to counteract cell death induced by glutamate, increasing concentrations of Cpd 5 reduce cell death levels from over 50% to less than 5%.

TSPO = TSPO (Homo sapiens (Human), UniProt P30536); type: binding
Description: Briefly, the assay utilizes radioactive standard ligand [^3H] PK 11195 (1-(2-chlorophenyl)-N-methyl-N-(1-methyl-propyl)-3 isoquinolinecarboxamide), and measures the ability of the compounds of the invention to displace standard ligand in binding to TSPO. Total radioactive binding was determined by measuring the radioactivity of the radioactive ligand-receptor complex, obtained in the reaction of radioactive standard with the TSPO. Radioactive standard and the examined compound were added to the TSPO and after some incubation time the radioactivity of the resulting ligand-receptor complexes was measured with the help of a […]. This radioactivity indicates the binding of the radioactive standard to TSPO. […] This can be expressed as the half maximal inhibitory concentration (IC50), which is a measure of the effectiveness of a compound in inhibiting biological or biochemical function, in this case inhibiting binding of standard radioactive ligand binding to the TSPO. A derivative of the IC50 is the Ki, which is the calculated binding affinity of the novel compound to the TSPO.
Binding to TSPO was evaluated using a [^3H]PK 11195 radio-assay, as described above.

R6-2 mice [2] = assay: Lifespan of R6-2 mice, transgenic model for Huntington Disease; type: in vivo, mouse; conditions: for effect on lifespan: daily s.c. injections 5 days a week from week 5, vs DMSO and saline
Excerpt: For the assays described herein systemic injections of kainic in rats were applied and also contusion (Veenman et al. 2002; Soustiel et al. Neuropathol Appl Neurobiol. 2008; Soustiel et al. Exp Neurol. 2008). These models present very well defined cell death in the brain. Cell death in the brain is the major pathological characteristic of progressing neurodegeneration common to brain diseases. As the compounds of the present invention are designed to prevent cell death in the brain as a consequence of disease and progressing brain damage after injury, including behavioral impairments, animal models displaying cell death in the brain are the models of choice for displaying the protective capabilities of the compounds of the invention. For these reasons the R6-2 model for Huntington Disease was chosen to test the effectiveness of Compound 1 and to compare the effectiveness of Compound 1 with those of the compound of U.S. Pat. No. 8,541,428 (Cpd A) and with the classical TSPO ligand PK 11195, as well as other compounds disclosed herein. Compounds 5 and 6 were also tested in the same R6-2 model.
R6-2 is a transgenic mouse model for Huntington Disease. Huntington Disease in humans is a hereditary neurodegenerative disease affecting motor performance and finally leading to death of the patients having the disease. R6-2 mice (˜120 CAG repeats B6CBA-Tg(HDexon1)62 Gpb/3J) mice were used for the experiments described below. For this purpose, mice obtained from the Jackson Laboratory (ME) were bred. In particular: males genotype: Hemizygous for Tg(HDexon1)62 Gpb, and females from the wildtype background strain B6CBAF1/J were bred according to the protocol of Jackson Laboratory. The male heterozygote offspring (R6-2 mice) were used for determining life span and motor activity, with and without drug treatment. Drug treatment consisted of daily (5 continuous days a week) subcutaneous injections of mice with 20 μl of: saline (sham control), vehicle DMSO (vehicle control), classic TSPO ligand PK 11195 (15 mg/kg), prior art Compound A (15 mg/kg), Compound 1 (15 mg/kg), and compound 1 (7.5 mg/kg). Drug treatment started on week 5 after birth. Quantities were used according to previous studies regarding TSPO ligands.
(§2) Apart from the behavioral experiments, mice were observed daily, and the day of death was noted. Behavioral experiments included distance covered in an open field apparatus, and tremor measurements.
R6-2 mice were used as previously described in Example 5. In one experiment, treatment consisted of daily (5 continuous days per week) subcutaneous injections of mice with 20 μl of vehicle DMSO (control, n=10) and Compound 6 (7.5 mg/kg, n=12). In a separate experiment, compound 5 (7.5 mg/kg, n=5) was tested, compared to DMSO control (n=5).

U118MG cells [3] = assay: Collapse of the mitochondrial membrane potential (ΔΨm) induced by glutamate; type: cell-based, human; conditions: glutamate exposed cells
Excerpt: as §1
Compound 1 is very effective at a concentration of 25 μM in this model (in order to achieve the same effect with the classical TSPO ligand PK 11195 a concentration of 50 μM has to be applied (data not shown).

R6-2 mice [4] = assay: Incidence of tremor in R6-2 mice; type: in vivo, mouse
Excerpt: as §2
To assay incidence of tremor in R6-2 mice of the experiments for this invention, the StartleMonitor of Kinder Scientific (Poway, Calif.), with specific software to assay and present force pressure changes in newtons, was used.

[5] = displacement of [3H]PK 11195 from TSPO
[6] = binding affinity to the TSPO, unit given as nm

TSPO, sequence (P30536 whole entry): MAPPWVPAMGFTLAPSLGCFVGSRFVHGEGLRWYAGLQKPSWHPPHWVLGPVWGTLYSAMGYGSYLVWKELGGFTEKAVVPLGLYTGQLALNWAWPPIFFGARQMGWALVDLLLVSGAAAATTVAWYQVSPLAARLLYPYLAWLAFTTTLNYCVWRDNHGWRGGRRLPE

SMILES | protection against cell death induced by glutamate (U118MG cells [1]) | Protection against glutamate-induced cell death (U118MG cells [1]) | Ki (TSPO; [5]) | effect on lifespan (R6-2 mice [2]) | other results
CCN(CC)C(=O)Oc1nc(-c2ccc(F)c(Cl)c2)nc2ccccc12 [Compound 2, 2-(3-chloro-4-fluorophenyl)quinazolin-4-yl diethylcarbamate] | strong protective properties | Good | ~380 nM |  | protection against cell death induced by glutamate (U118MG cells [1]; listed as compound 2): protective properties
CCC(C)N(C)C(=O)c1cc2ccccc2c(-c2ccccc2Cl)n1 (stereo not drawn) [PK 11195, 1-(2-chlorophenyl)-N-methyl-N-(1-methyl-propyl)-3 isoquinolinecarboxamide, reference compound] |  |  |  | indistinguishable from vehicle; also recorded: had no such effects; also recorded: has no effect at all | concentration very effective in preventing ΔΨm collapse (U118MG cells [3]): 50 µM
CCN(CC)C(=O)Oc1nc(-c2ccccc2Cl)nc2ccccc12 [Compound 8, 2-(2-chlorophenyl)quinazolin-4-yl diethylcarbamate] | improves protection | Good | ~2.5 nM |  | lethal effects of compound at high concentration (U118MG cells [1]): reduces lethal effects; lethal effects of compound at high concentration (U118MG cells [1]; listed as Cpd 8): reduces cell death effects; cell death effect of glutamate at high compound concentration (U118MG cells [1]; glutamate plus 100 μM compound): reduces cell death effect of glutamate in cultures even further
CCN(C)C(=O)Oc1nc(-c2ccccc2Cl)nc2ccccc12 [Compound 6, 2-(2-chlorophenyl)quinazolin-4-yl ethyl(methyl)carbamate] | protect better and more consistently; also recorded: improves protection | Excellent | ~60 nM | increase the average lifespan; also recorded: extends the life span | week until which 50% of the mice were still alive (R6-2 mice [2]; 7.5 mg/kg s.c., 50% of DMSO mice died before 10th week): 12 week; effect on lifespan (R6-2 mice [2]; listed as compound 6): robust lifespan enhancing; incidence of tremor activity (R6-2 mice [4]): tremor reducing effects; also recorded: reduced the incidence of tremor activity; lethal effects of compound at high concentration (U118MG cells [1]): reduces lethal effects; lethal effects of compound at high concentration (U118MG cells [1]; listed as Cpd 6): reduces cell death effects; protection against cell death induced by glutamate (U118MG cells [1]; listed as compound 6): superior over compound 1; cell death effect of glutamate at high compound concentration (U118MG cells [1]; glutamate plus 100 μM compound): reduces cell death effect of glutamate in cultures even further; cells killed by glutamate (U118MG cells [1]; glutamate plus 100 μM compound, glutamate alone kills 50-60%): 5%
CCN(CC)C(=O)Oc1nc(-c2ccccc2)nc2ccccc12 [Compound 7, 2-phenylquinazolin-4-yl diethylcarbamate] |  | Good | ~2.5 nM |  | Ki (TSPO; [6]): ~2.5 nM
CCN(CC)C(=O)Oc1nc(-c2c(Cl)cccc2Cl)nc2ccccc12 [Compound 3, 2-(2,6-dichlorophenyl)quinazolin-4-yl diethylcarbamate] | good protective properties | Good | ~1510 nM |  | protection against cell death induced by glutamate (U118MG cells [1]; listed as compound 3): protective properties
CN(C)C(=O)Oc1nc(-c2ccccc2)nc2ccccc12 [Compound A, reference compound] | significantly less efficacious | Good | ~600 nM | indistinguishable from vehicle treated mice; also recorded: had no such effects; also recorded: has no effect | Ki (TSPO; [6]): ~600 nM

From patent publication US10035780B2, “Quinazoline scaffold based compounds, pharmaceutical compositions and methods of use thereof” (TECHNION RESEARCH & DEVELOPMENT FOUNDATION LTD., priority 2014, dated 2018)
